Test results taken from US8680012B2, “4-phenyl-pyrane-3,5-diones,4-phenyl-thiopyrane-3,6-diones and cyclohexanetriones as novel herbicides” (Syngenta Crop Protection LLC, priority 2006, dated 2014).

Legend:
[1] = test system: Digitaria sanguinalis (DIGSA); assay: Example A pre-emergence herbicidal activity, glasshouse pot test; assay type: in vivo; settings: 480 h, rate 250 g/ha, evaluated 20 days after spraying, read-out: Pre-emergence activity DIGSA (100=total damage to plant; 0=no damage to plant)
In short: (§1)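 Pot-grown plants sprayed with compound in an aqueous emulsifiable formulation (Emulsogen EL, N-methylpyrrolidone, dipropylene glycol monomethyl ether, X-77) one day after sowing (pre-emergence) or after 10 days (post-emergence). Damage scored 0 (none) to 100 (total) after 20 days pre-emergence or 15 days post-emergence.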

[2] = test system: Alopecurus myosuroides (ALOMY); assay: as above; assay type: in vivo; settings: 480 h, rate 250 g/ha, evaluated 20 days after spraying, read-out: Pre-emergence activity ALOMY (100=total damage to plant; 0=no damage to plant)
In short: as §1

[3] = test system: Avena fatua (AVEFA); assay: as above; assay type: in vivo; settings: 480 h, rate 250 g/ha, evaluated 20 days after spraying, read-out: Pre-emergence activity AVEFA (100=total damage to plant; 0=no damage to plant)
In short: as §1

[4] = test system: Lolium perenne (LOLPE); assay: as above; assay type: in vivo; settings: 480 h, rate 250 g/ha, evaluated 20 days after spraying, read-out: Pre-emergence activity LOLPE (100=total damage to plant; 0=no damage to plant)
In short: as §1

[5] = test system: Echinochloa crus-galli (ECHCG); assay: as above; assay type: in vivo; settings: 480 h, rate 250 g/ha, evaluated 20 days after spraying, read-out: Pre-emergence activity ECHCG (100=total damage to plant; 0=no damage to plant)
In short: as §1

[6] = test system: Setaria faberi (SETFA); assay: as above; assay type: in vivo; settings: 480 h, rate 250 g/ha, evaluated 20 days after spraying, read-out: Pre-emergence activity SETFA (100=total damage to plant; 0=no damage to plant)
In short: as §1

[7] = test system: Digitaria sanguinalis (DIGSA); assay: Example A post-emergence herbicidal activity, glasshouse pot test; assay type: in vivo; settings: 360 h, rate 125 g/ha, evaluated 15 days after spraying, read-out: Post-emergence activity DIGSA (100=total damage to plant; 0=no damage to plant)
In short: as §1

[8] = test system: Alopecurus myosuroides (ALOMY); assay: as above; assay type: in vivo; settings: 360 h, rate 125 g/ha, evaluated 15 days after spraying, read-out: Post-emergence activity ALOMY (100=total damage to plant; 0=no damage to plant)
In short: as §1

[9] = test system: Avena fatua (AVEFA); assay: as above; assay type: in vivo; settings: 360 h, rate 125 g/ha, evaluated 15 days after spraying, read-out: Post-emergence activity AVEFA (100=total damage to plant; 0=no damage to plant)
In short: as §1

[10] = test system: Lolium perenne (LOLPE); assay: as above; assay type: in vivo; settings: 360 h, rate 125 g/ha, evaluated 15 days after spraying, read-out: Post-emergence activity LOLPE (100=total damage to plant; 0=no damage to plant)
In short: as §1

[11] = test system: Echinochloa crus-galli (ECHCG); assay: as above; assay type: in vivo; settings: 360 h, rate 125 g/ha, evaluated 15 days after spraying, read-out: Post-emergence activity ECHCG (100=total damage to plant; 0=no damage to plant)
In short: as §1

[12] = test system: Setaria faberi (SETFA); assay: as above; assay type: in vivo; settings: 360 h, rate 125 g/ha, evaluated 15 days after spraying, read-out: Post-emergence activity SETFA (100=total damage to plant; 0=no damage to plant)
In short: as §1

[13] = test system: Amaranthus retroflexus (AMARE); assay: Example B post-emergence herbicidal activity, glasshouse pot test; assay type: in vivo; settings: 312 h, rate 250 g/ha, evaluated after 13 days, read-out: Post-emergence activity AMARE (100=total damage to plant; 0=no damage to plant)
In short: (§2)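 Compound sprayed in acetone/water (50:50) plus 0.5% Tween 20 onto potted soil one day post-sowing, or onto seedlings after 8 days. Scored 0–100 for damage after 13 days.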

[14] = test system: Alopecurus myosuroides (ALOMY); assay: as above; assay type: in vivo; settings: 312 h, rate 250 g/ha, evaluated after 13 days, read-out: Post-emergence activity ALOMY (100=total damage to plant; 0=no damage to plant)
In short: as §2

[15] = test system: Avena fatua (AVEFA); assay: as above; assay type: in vivo; settings: 312 h, rate 250 g/ha, evaluated after 13 days, read-out: Post-emergence activity AVEFA (100=total damage to plant; 0=no damage to plant)
In short: as §2

[16] = test system: Echinochloa crus-galli (ECHCG); assay: as above; assay type: in vivo; settings: 312 h, rate 250 g/ha, evaluated after 13 days, read-out: Post-emergence activity ECHCG (100=total damage to plant; 0=no damage to plant)
In short: as §2

[17] = test system: Setaria faberi (SETFA); assay: as above; assay type: in vivo; settings: 312 h, rate 250 g/ha, evaluated after 13 days, read-out: Post-emergence activity SETFA (100=total damage to plant; 0=no damage to plant)
In short: as §2

[18] = test system: Amaranthus retroflexus (AMARE); assay: Example B pre-emergence herbicidal activity, glasshouse pot test; assay type: in vivo; settings: 312 h, rate 250 g/ha, evaluated after 13 days, read-out: Pre-emergence activity AMARE (100=total damage to plant; 0=no damage to plant)
In short: as §2

[19] = test system: Alopecurus myosuroides (ALOMY); assay: as above; assay type: in vivo; settings: 312 h, rate 250 g/ha, evaluated after 13 days, read-out: Pre-emergence activity ALOMY (100=total damage to plant; 0=no damage to plant)
In short: as §2

[20] = test system: Avena fatua (AVEFA); assay: as above; assay type: in vivo; settings: 312 h, rate 250 g/ha, evaluated after 13 days, read-out: Pre-emergence activity AVEFA (100=total damage to plant; 0=no damage to plant)
In short: as §2

[21] = test system: Echinochloa crus-galli (ECHCG); assay: as above; assay type: in vivo; settings: 312 h, rate 250 g/ha, evaluated after 13 days, read-out: Pre-emergence activity ECHCG (100=total damage to plant; 0=no damage to plant)
In short: as §2

[22] = test system: Setaria faberi (SETFA); assay: as above; assay type: in vivo; settings: 312 h, rate 250 g/ha, evaluated after 13 days, read-out: Pre-emergence activity SETFA (100=total damage to plant; 0=no damage to plant)
In short: as §2

## CCc1ccc(-c2ccc(F)cc2)cc1C1=C(O)[C@@]2(C)CC[C@H](O2)C1=O [Compound A-38]
[1]
  pest or weed control at 250 g/ha: 30%
[2]
  pest or weed control at 250 g/ha: 50%
[3]
  pest or weed control at 250 g/ha: 10%
[4]
  pest or weed control at 250 g/ha: 60%
[5]
  pest or weed control at 250 g/ha: 70%
[6]
  pest or weed control at 250 g/ha: 90%
other
  melting point: 165 to 167 °C
[7]
  pest or weed control at 125 g/ha: 70%
[8]
  pest or weed control at 125 g/ha: 50%
[9]
  pest or weed control at 125 g/ha: 60%
[10]
  pest or weed control at 125 g/ha: 0%
[11]
  pest or weed control at 125 g/ha: 90%
[12]
  pest or weed control at 125 g/ha: 80%

## CCc1ccc(-c2ccc(Cl)cc2)cc1C1=C(O)C(C)(C)OC(C)(COC)C1=O (stereo not drawn) [Compound A-99]
[13]
  pest or weed control at 250 g/ha: 0%
[14]
  pest or weed control at 250 g/ha: 90%
[15]
  pest or weed control at 250 g/ha: 90%
[16]
  pest or weed control at 250 g/ha: 100%
[17]
  pest or weed control at 250 g/ha: 100%
[18]
  pest or weed control at 250 g/ha: 20%
[19]
  pest or weed control at 250 g/ha: 80%
[20]
  pest or weed control at 250 g/ha: 50%
[21]
  pest or weed control at 250 g/ha: 100%
[22]
  pest or weed control at 250 g/ha: 100%
other
  melting point: 123 to 124 °C
